Source: patent US9701707B2, “Methods of synthesizing substituted purine compounds” (Epizyme, Inc., priority 2013, dated 2017)

Tests used:
Format in all cases: physicochemical
[1] = Solid-state stability (chemical and physical); details: 5° C. Closed Dish, 7 Days
Method: Chemical Stability: Accurately weighed ˜10 mg Form B was placed into four 10-ml volumetric flasks. The samples were stored at 5° C. closed dish, 25° C./57% RH open dish, 40° C./75% RH open dish, and 60° C. closed dish for 7 days. The sample stored at 5° C. was used as a control. Assay and total related substances for each sample were checked at the end of 7 days.
Physical Stability: Accurately weighed ˜15 mg of Form B was placed into 5-ml glass vials and the samples were stored at 5° C. closed dish, 25° C./57% RH open dish, 40° C./75% RH open dish, and 60° C. closed dish for 7 days. Samples were analyzed by XRPD and TGA (FIG. 24).

[2] = Equilibrium solubility in organic solvents; details: RT; for Remaining Solid: XRPD; for solubility at 24 h: organic solvent or mixture, thermodynamic from solid
Method: Approximately 10 mg of Form B was weighed into a 1-ml glass vial followed by addition of 0.5 ml relevant media. Each sample was continuously stirred using a magnetic stir bar at 25° C. for 24 h. The suspension was then filtered using a nylon membrane with a pore diameter of 0.22 μm. The filtrates were diluted for HPLC analysis and final pH was measured. The solid residue of each sample was collected for XRPD analysis. The solubility of Form B was also determined in commonly used organic solvents (diluents or HPLC mobile phase). The solubility data summarized in Table 10 indicates Form B is quite soluble in MeOH, EtOH, and IPA.

[3] = Solution stability in pH buffers
Method: 0.1 mg/ml solutions of Form B were prepared in five buffers, including 0.01N HCl (pH 2), 50 mM sodium citrate (pH 4), 50 mM sodium citrate (pH 6), 50 mM sodium phosphate (pH 8), and 50 mM sodium carbonate (pH 10). Methanol was added as a co-solvent to dissolve Form B in buffers (i.e., 10% (v/v) in pH 2, 4, and 6 buffers, 20% (v/v) in pH 8 buffer, and 30% (v/v) in pH 10 buffer). Each buffer solution containing Form B was stored at 3 different temperatures: 25° C., 37° C., and 50° C. Aliquots were taken for HPLC analysis after 1 day and 7 days. pH values were also measured before and after the stability experiments.
Preparation of pH Buffers • pH 2: 0.01N HCl solution. Dilute 1 ml of 1 N HCl with H2O up to a total volume of 100 ml. Measure the pH and precisely adjust to pH=2.00 using a few microliters of 1N HCl or 1N NaOH. • pH 4: 50 mM Na citrate buffer. Prepare a 50 mM citric acid solution by diluting 10 ml of 1N citric acid with H2O up to a total volume of 200 ml. Slowly add solid NaOH under stirring to increase the pH to 3.8-4.0 and use a few microliters of 1N NaOH for final adjustment to pH 4.00. • pH 6: 50 mM Na citrate buffer. Use the same procedure as the pH 4 buffer and adjust to pH=6.00 • pH 8: 50 mM Na phosphate buffer. Prepare a 50 mM NaH2PO4 solution by dissolving 6.00 g NaH2PO4 in 1 L of H2O and a 50 mM Na2HPO4 solution by dissolving 7.10 g in 1 L of H2O. Mix 10 ml of the NaH2PO4 solution with 140 ml of the Na2HPO4 solution in a beaker. Adjust to pH 8.00 by addition of small amounts of 50 mM NaH2PO4 or Na2HPO4 solution. • pH 10: 50 mM Na carbonate buffer. Prepare a 50 mM carbonate solution by dissolving 840 mg of sodium bicarbonate (NaHCO3) in about 180 ml of H2O. Slowly adjust the pH to 10.0±0.1 by addition of 1N NaOH. Add water to reach the total volume of 200 ml and adjust to pH 10.00 with 1N NaOH.

[4] = pH 2, 25° C., 24 h, measured pH 2.1
[5] = pH 2, 25° C., 7 days, measured pH 2.1
[6] = pH 2, 37° C., 24 h, measured pH 2.1
[7] = pH 2, 37° C., 7 days, measured pH 2.1
[8] = pH 2, 50° C., 24 h, measured pH 2.1
[9] = pH 2, 50° C., 7 days, measured pH 2.1
[10] = pH 4, 25° C., 24 h, measured pH 4.2
[11] = pH 4, 25° C., 7 days, measured pH 4.2
[12] = pH 4, 37° C., 24 h, measured pH 4.1
[13] = pH 4, 37° C., 7 days, measured pH 4.1
[14] = pH 4, 50° C., 24 h, measured pH 4.1
[15] = pH 4, 50° C., 7 days, measured pH 4.2
[16] = pH 6, 25° C., 24 h, measured pH 6.2
[17] = pH 6, 25° C., 7 days, measured pH 6.2
[18] = pH 6, 37° C., 24 h, measured pH 6.2
[19] = pH 6, 37° C., 7 days, measured pH 6.3
[20] = pH 6, 50° C., 24 h, measured pH 6.2
[21] = pH 6, 50° C., 7 days, measured pH 6.2
[22] = pH 8, 25° C., 24 h, measured pH 8.2
[23] = pH 8, 25° C., 7 days, measured pH 8.2
[24] = pH 8, 37° C., 24 h, measured pH 8.2
[25] = pH 8, 37° C., 7 days, measured pH 8.3
[26] = pH 8, 50° C., 24 h, measured pH 8.3
[27] = pH 8, 50° C., 7 days, measured pH 8.3
[28] = pH 10, 25° C., 24 h, measured pH 10.9
[29] = pH 10, 25° C., 7 days, measured pH 10.9
[30] = pH 10, 37° C., 24 h, measured pH 10.9
[31] = pH 10, 37° C., 7 days, measured pH 10.9
[32] = pH 10, 50° C., 24 h, measured pH 11.0
[33] = pH 10, 50° C., 7 days, measured pH 10.9

SMILES: CC(C)N(C[C@H]1O[C@@H](n2cnc3c(N)ncnc32)[C@H](O)[C@@H]1O)[C@H]1C[C@@H](CCc2nc3cc(C(C)(C)C)ccc3[nH]2)C1 [Form B, (2R,3R,4S,5R)-2-(6-amino-9H-purin-9-yl)-5-((((1r,3S)-3-(2-(5-(tert-butyl)-1H-benzo[d]imidazol-2-yl)ethyl)cyclobutyl)(isopropyl)amino)methyl)tetrahydrofuran-3,4-diol trihydrate]
- Physical: XRPD [1]: Form B
- Chemical: % Claim (Cs/Ci × 100%) ([1]; sample used as standard for the calculation): 100.0^& %
- Remaining Solid ([2]; Acetone): Form B
- Remaining Solid ([2]; Acetonitrile): Form B
- solubility at 24 h ([2]; Ethanol): > 87 mg/mL
- solubility at 24 h ([2]; Isopropanol): > 129 mg/mL
- solubility at 24 h ([2]; Methanol): > 200 mg/mL
- % area (100% − TRS%) [3, 4]: 98.7%
- % claim (Cs/Ci × 100%) [3, 4]: 97.1%
- % area (100% − TRS%) [3, 5]: 98.5%
- % claim (Cs/Ci × 100%) [3, 5]: 99.1%
- % area (100% − TRS%) [3, 6]: 98.7%
- % claim (Cs/Ci × 100%) [3, 6]: 96.8%
- % area (100% − TRS%) [3, 7]: 98.4%
- % claim (Cs/Ci × 100%) [3, 7]: 97.5%
- % area (100% − TRS%) [3, 8]: 98.3%
- % claim (Cs/Ci × 100%) [3, 8]: 97.0%
- % area (100% − TRS%) [3, 9]: 98.4%
- % claim (Cs/Ci × 100%) [3, 9]: 97.0%
- degradation in solution ([3]; pH 2 to 10 buffers, 25° C., 37° C., 50° C., up to 7 days): less than 5%
- % area (100% − TRS%) [3, 10]: 99.4%
- % claim (Cs/Ci × 100%) [3, 10]: 97.4%
- % area (100% − TRS%) [3, 11]: 99.6%
- % claim (Cs/Ci × 100%) [3, 11]: 100.2%
- % area (100% − TRS%) [3, 12]: 99.4%
- % claim (Cs/Ci × 100%) [3, 12]: 97.6%
- % area (100% − TRS%) [3, 13]: 99.5%
- % claim (Cs/Ci × 100%) [3, 13]: 99.0%
- % area (100% − TRS%) [3, 14]: 99.4%
- % claim (Cs/Ci × 100%) [3, 14]: 97.6%
- % area (100% − TRS%) [3, 15]: 99.5%
- % claim (Cs/Ci × 100%) [3, 15]: 98.7%
- % area (100% − TRS%) [3, 16]: 99.2%
- % claim (Cs/Ci × 100%) [3, 16]: 98.0%
- % area (100% − TRS%) [3, 17]: 99.5%
- % claim (Cs/Ci × 100%) [3, 17]: 100.0%
- % area (100% − TRS%) [3, 18]: 99.3%
- % claim (Cs/Ci × 100%) [3, 18]: 97.9%
- % area (100% − TRS%) [3, 19]: 99.4%
- % claim (Cs/Ci × 100%) [3, 19]: 99.0%
- % area (100% − TRS%) [3, 20]: 99.3%
- % claim (Cs/Ci × 100%) [3, 20]: 98.1%
- % area (100% − TRS%) [3, 21]: 99.5%
- % claim (Cs/Ci × 100%) [3, 21]: 98.9%
- % area (100% − TRS%) [3, 22]: 99.2%
- % claim (Cs/Ci × 100%) [3, 22]: 98.0%
- % area (100% − TRS%) [3, 23]: 99.5%
- % claim (Cs/Ci × 100%) [3, 23]: 99.8%
- % area (100% − TRS%) [3, 24]: 99.5%
- % claim (Cs/Ci × 100%) [3, 24]: 98.4%
- % area (100% − TRS%) [3, 25]: 99.5%
- % claim (Cs/Ci × 100%) [3, 25]: 99.3%
- % area (100% − TRS%) [3, 26]: 99.5%
- % claim (Cs/Ci × 100%) [3, 26]: 98.0%
- % area (100% − TRS%) [3, 27]: 99.5%
- % claim (Cs/Ci × 100%) [3, 27]: 98.8%
- % area (100% − TRS%) [3, 28]: 99.4%
- % claim (Cs/Ci × 100%) [3, 28]: 98.0%
- % area (100% − TRS%) [3, 29]: 99.4%
- % claim (Cs/Ci × 100%) [3, 29]: 99.7%
- % area (100% − TRS%) [3, 30]: 99.4%
- % claim (Cs/Ci × 100%) [3, 30]: 98.2%
- % area (100% − TRS%) [3, 31]: 99.4%
- % claim (Cs/Ci × 100%) [3, 31]: 99.0%
- % area (100% − TRS%) [3, 32]: 99.5%
- % claim (Cs/Ci × 100%) [3, 32]: 97.9%
- % area (100% − TRS%) [3, 33]: 99.4%
- % claim (Cs/Ci × 100%) [3, 33]: 98.9%
